From US20020032177A1, “Use of D-chiro-inositol in the treatment of conditions associated with hypothalamic gene expression” (Insmed Pharmaceuticals, Inc., priority 2000, published 2002)
Like-named read-outs stand apart in the source and are kept apart here.

Key:
[1] = Adiposity of mice after DCI administration; type: in vivo; conditions: fed and 48-hour fasted
Text: (§1) FIG. 3 and FIG. 4 depict, respectively, the effect of DCI administration on leptin mRNA and plasma leptin in mice. […] Thus, DCI enhances the rate of translation and secretion of leptin.

[2] = system: AGRP mRNA; assay: AGRP mRNA levels in diet-induced obese mice; type: in vivo; conditions: FIG. 2
Text: (§2) A high calorie diet (compositionally equivalent to the typical American diet) will induce obesity and diabetes in some mouse strains (e.g., C57BL/6J) but not others (e.g., A/J). […] These changes in hypothalamic gene expression are ultimately regulated by insulin, although part of the effect may be mediated indirectly by the effect of insulin on leptin synthesis in fat, which then feeds back to hypothalamus to enhance the direct effect of insulin on the hypothalamus. By enhancing the rate of translation and secretion of leptin this hypothalamic response is blocked or attenuated.
(§3) FIG. 1 and FIG. 2 depicts the results of studies in the diet induced mice on NPY and AGRP mRNA levels. DCI leads to lower NPY and AGRP mRNA.

[3] = system: leptin mRNA; assay: Leptin mRNA in mice after DCI administration; type: in vivo; conditions: FIG. 3
Text: as §1

[4] = system: NPY mRNA; assay: NPY mRNA levels in diet-induced obese mice; type: in vivo
Text: as §2, §3

[5] = system: plasma leptin; assay: Plasma leptin in mice after DCI administration; type: in vivo; conditions: FIG. 4
Text: as §1

[6] = women with PCOS; cited from earlier work
[7] = obese rodents and humans; cited from earlier work
[8] = system: leptin mRNA; conditions: elevation of leptin by injection; cited from earlier work
[9] = ob/ob mice, daily injections; cited from earlier work
[10] = lean (wild-type) mice, daily injections; cited from earlier work

## OC1C(O)C(O)C(O)C(O)C1O [DCI, D-chiro-inositol]
[1]
  adiposity: without increasing adiposity
[2]
  AGRP mRNA: lower
[3]
  leptin mRNA: decrease
[4]; diet induced mice, FIG. 1
  NPY mRNA: lower
[4]; fasted state, diet-induced obese mice
  effect of fasting on NPY and AGRP mRNA: blocks or attenuates the effect of fasting
[5]; 48-hour fasted mice
  increase of plasma leptin: over 5 fold
[5]; fed mice
  increase of plasma leptin: over 2 fold

## CN(C)C(=N)N=C(N)N [Metformin]
[6]
  fertility: partially restores
[7]
  food intake: decreases

B1: leptin: product of the obese (ob) gene, secreted by adipose cells; given as daily injections of recombinant protein (protein, UniProt P41160 22-167, looked up)
Leptin: VPIQKVQDDTKTLIKTIVTRINDISHTQSVSAKQRVTGLDFIPGLHPILSLSKMDQTLAVYQQVLTSLPSQNVLQIANDLENLRDLLHLLAFSKSCSLPQTSGLQKPESLDGVLEASLYSTEVVALSRLQGSLQDILQQLDVSPEC
[8]
  leptin mRNA: pronounced decreases
[9]
  body weight and fat: reduction
  food intake: markedly inhibited
[10]
  food intake and body weight: modest decreases
